The test system of test [1] is somatostatin gene expression in TRM-6/PDX-1 cells. Description: Somatostatin mRNA expression by RT-PCR in monolayer TRM-6/PDX-1 cells. The test is classed as cell-based, human. The note with it: approximately 24 hours; for somatastatin mRNA expression (effect in words): TRM-6 cells expressing PDX-1, monolayer cultures. The procedure:
The cells were incubated with the inhibitor for approximately 24 hours and then expression of somatastatin expression was measured with RT-PCR. As little as 66 nM TSA lead to an increase in somatastatin induction, with a maximal induction at 6.6. μM of TSA.

For test [2], the system named is insulin gene expression in TRM-6/PDX-1/NeuroD1 cells. Briefly: Insulin mRNA expression by RT-PCR in monolayer TRM-6/PDX-1/NeuroD1 cells. The test is classed as cell-based, human. The procedure: FIG. 1 illustrates induction of insulin expression resulting from treatment with trichostatin A (TSA). Insulin mRNA was analyzed by RT-PCR. RT-PCR for the housekeeping gene porphobilinogen deaminase was performed to ensure that equal amounts of cDNA were used. The experiment has been repeated three times and the figure shown here is representative.
Monolayer cultures of TRM-6/PDX-1 also expressing the transcription factor NeuroD 1 (BETA2) express low levels of insulin gene expression.

In test [3] the test system is insulin promoter (CAT reporter) in HeLa cells. Briefly: Insulin promoter CAT reporter activity in HeLa cells transformed with PDX-1. The test is classed as cell-based. Particulars: HeLa cells transformed with PDX-1 and insulin promoter-CAT plasmid (FIG. 2). The procedure: FIG. 2 is a bar graph illustrating expression of an insulin promoter in HeLa cells transformed with PDX-1. The graph illustrates differences in expression from the insulin promoter in the presence or absence of the histone deacetylase inhibitor TSA. Insulin promoter activity was determined based on expression of chloramphenicol acetyl transferase (CAT) reporter activity.
In addition, expression of an insulin promoter in HeLa cells was tested for the effect of the histone deacetylase inhibitor TSA on insulin expression. HeLa cells were transformed with PDX-1 and a plasmid comprising a portion of the insulin promoter operably linked to the chloramphenicol acetyl transferase (CAT) reporter gene. The effect of TSA and PDX-1 on insulin expression was then tested. As FIG. 2 illustrates, cells contacted with TSA had approximately 14 times the expression of cells not contacted with TSA.

As for `CC(/C=C/C(=O)NO)=C\[C@@H](C)C(=O)c1ccc(N(C)C)cc1` [TSA, trichostatin A], the “concentration giving maximal somatastatin induction” value in test [1] (TRM-6/PDX-1 monolayer) amounted to 6.6 µM. Further, the “lowest TSA concentration leading to an increase in somatastatin induction” value in test [1] (TRM-6/PDX-1 monolayer) came out at 66 nM. Further, the “somatastatin mRNA expression (effect in words)” value in test [1] is given as “bypassed the need for cell-cell contact to achieve high levels of somatostatin gene expression”; in test [1] (listed as trichostatin A), “induced somatastatin mRNA expression”. Also, in test [2] (3.3 μM for 24 hours, TRM-6/PDX-1/NeuroD1 monolayer, RT-PCR (FIG. 1)), the “insulin expression (effect in words)” value is listed as “greatly increases insulin expression”. In addition, in test [2] (TRM-6 cells), the “insulin gene expression in TRM-6 cells (summary statement)” value is recorded as “induced insulin gene expression”. In addition, the “insulin promoter expression relative to cells not contacted with TSA” value in test [3] is “approximately 14 times”.

The values are drawn from US20040002447A1, “Induction of insulin expression” (REGENTS OF THE UNIVERSITY OF CALIFORNIA, priority 2002, published 2004).
